For eight molecules, IC50 results are on record in patent US10472356B2, “Bicyclic ketone sulfonamide compounds” (AMGEN INC., priority 2015, dated 2019).

As a reminder, the IC50 is the midpoint of a concentration-inhibition curve.

Holding throughout (format): cell-based
In assay [1] the target is T1, human Nav1.7 (Homo sapiens, UniProt Q15858).
T1 construct: expressed in transfected cells; host or cells: HEK293
Put plainly: Nav 1.7 In Vitro PatchXpress (PX) Assay. The settings on record: HEK 293 cells stably transfected with human Nav1.7; PatchXpress whole cell voltage clamp; partially inactivated state (holding potential yielding 20 to 50% inactivation); read-out: hNav1.7 PX IC50. Put shortly:
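Whole-cell voltage clamp on HEK 293 cells stably expressing human Nav1.7 (automated patch), holding potential giving 20–50% inactivation; 20 ms pulses to −10 mV at 0.1 Hz. Single compound concentration applied 3 min, peak current inhibition measured; IC50 fitted from 3–5 cells per concentration.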

Assay [2] deals with T1, human Nav1.7. In words: Nav 1.7 IWQ In Vitro Assay (IonWorks Quattro). To be noted: HEK293 cells stably transfected with human Nav 1.7; IonWorks Quattro population patch-clamp; 26th pulse to −20 mV, 5 Hz; cells unclamped 5 to 8 minutes with compound; read-out: hNav1.7 IWQ IC50. Put shortly: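 Population patch clamp on HEK293 cells stably expressing human Nav 1.7: held at −110 mV for three seconds, then 26 pulses of 150 msec to −20 mV at 5 Hz, before and after 5-8 min with one compound concentration. Percent inhibition from peak current at the 26th pulse.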

For assay [3], the target named is T1, human Nav1.7. In words: Nav 1.7 IWB In Vitro Assay (IonWorks Barracuda). The settings on record: HEK293 cells stably transfected with human Nav 1.7; IonWorks Barracuda population patch-clamp; cells clamped to −20 mV for 4 minutes with compound; 26th pulse; read-out: hNav1.7 IWB IC50. The procedure, abridged: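 Population patch clamp of HEK293 cells stably expressing human Nav 1.7: 26 pulses to −20 mV (150 ms, 5 Hz) from −110 mV, then 4 min at −20 mV with compound, 3 s recovery at −110 mV and the train repeated. % inhibition of 26th-pulse peak current vs no compound; IC50 from concentration-response curves.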
In general terms: Patch clamp records ionic current or voltage across a cell membrane.

The structures appear in SMILES notation.

T1 sequence (Q15858 whole entry): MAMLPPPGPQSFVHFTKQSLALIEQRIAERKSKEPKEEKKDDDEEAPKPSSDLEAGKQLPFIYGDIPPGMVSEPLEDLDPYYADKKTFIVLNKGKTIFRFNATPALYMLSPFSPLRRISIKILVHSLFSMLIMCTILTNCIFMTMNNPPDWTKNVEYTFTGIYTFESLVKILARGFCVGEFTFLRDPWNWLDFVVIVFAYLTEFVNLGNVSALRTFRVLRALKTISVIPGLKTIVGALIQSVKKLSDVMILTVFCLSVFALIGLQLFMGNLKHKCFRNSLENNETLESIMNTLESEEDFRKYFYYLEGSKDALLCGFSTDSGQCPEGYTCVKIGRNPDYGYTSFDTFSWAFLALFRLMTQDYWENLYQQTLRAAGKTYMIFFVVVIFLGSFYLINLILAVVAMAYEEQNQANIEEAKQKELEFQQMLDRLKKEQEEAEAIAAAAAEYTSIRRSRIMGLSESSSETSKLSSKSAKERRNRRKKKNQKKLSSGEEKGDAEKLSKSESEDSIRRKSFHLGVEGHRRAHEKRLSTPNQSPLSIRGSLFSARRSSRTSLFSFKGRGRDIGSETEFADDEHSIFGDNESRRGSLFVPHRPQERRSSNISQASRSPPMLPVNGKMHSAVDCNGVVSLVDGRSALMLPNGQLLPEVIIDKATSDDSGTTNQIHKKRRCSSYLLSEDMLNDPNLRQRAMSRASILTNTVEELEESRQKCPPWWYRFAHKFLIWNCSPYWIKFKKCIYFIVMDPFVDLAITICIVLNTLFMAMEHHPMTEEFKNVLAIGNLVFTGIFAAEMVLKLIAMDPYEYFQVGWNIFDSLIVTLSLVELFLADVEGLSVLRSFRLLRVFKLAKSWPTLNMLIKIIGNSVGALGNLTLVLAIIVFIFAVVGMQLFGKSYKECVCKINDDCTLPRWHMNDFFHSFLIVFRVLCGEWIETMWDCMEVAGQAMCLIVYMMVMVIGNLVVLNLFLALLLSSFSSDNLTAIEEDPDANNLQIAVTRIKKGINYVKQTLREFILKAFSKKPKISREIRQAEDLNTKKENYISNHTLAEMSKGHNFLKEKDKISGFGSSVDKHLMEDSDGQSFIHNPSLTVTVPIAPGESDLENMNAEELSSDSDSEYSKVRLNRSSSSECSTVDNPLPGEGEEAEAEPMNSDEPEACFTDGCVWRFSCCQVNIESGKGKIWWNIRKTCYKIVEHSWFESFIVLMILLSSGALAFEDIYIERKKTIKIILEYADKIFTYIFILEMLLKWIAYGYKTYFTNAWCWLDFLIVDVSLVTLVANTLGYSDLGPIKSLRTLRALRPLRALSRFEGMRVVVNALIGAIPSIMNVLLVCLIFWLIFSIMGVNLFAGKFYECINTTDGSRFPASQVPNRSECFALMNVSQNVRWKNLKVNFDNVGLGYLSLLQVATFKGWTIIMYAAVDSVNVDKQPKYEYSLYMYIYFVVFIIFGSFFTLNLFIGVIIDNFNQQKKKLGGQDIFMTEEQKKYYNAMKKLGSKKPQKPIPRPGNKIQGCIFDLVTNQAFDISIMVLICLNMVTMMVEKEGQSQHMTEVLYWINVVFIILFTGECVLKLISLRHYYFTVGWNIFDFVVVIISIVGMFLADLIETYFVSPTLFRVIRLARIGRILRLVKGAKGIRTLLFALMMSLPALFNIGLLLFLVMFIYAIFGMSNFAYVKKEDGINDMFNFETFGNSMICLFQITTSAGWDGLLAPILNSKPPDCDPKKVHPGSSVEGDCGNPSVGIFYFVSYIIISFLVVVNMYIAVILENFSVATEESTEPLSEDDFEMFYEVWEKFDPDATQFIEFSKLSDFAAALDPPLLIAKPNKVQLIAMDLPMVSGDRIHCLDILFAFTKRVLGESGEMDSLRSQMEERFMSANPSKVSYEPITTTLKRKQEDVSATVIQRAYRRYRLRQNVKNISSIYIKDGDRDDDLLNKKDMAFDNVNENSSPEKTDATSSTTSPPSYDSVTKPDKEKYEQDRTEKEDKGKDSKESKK

For `COc1cc(-c2cc(F)cc(Cl)c2)c(F)cc1-n1c2c(ccc1=O)CN(S(=O)(=O)Nc1ccccn1)CC2` (single isomer, unassigned) [Example 11-P, P-1-(3′-chloro-2,5′-difluoro-5-methoxy-4-biphenylyl)-2-oxo-N-2-pyridinyl-1,5,7,8-tetrahydro-1,6-naphthyridine-6(2H)-sulfonamide], the IC50 at human Nav1.7 [1] was found to be 166 nM; at human Nav1.7 [2], 54 nM; at human Nav1.7 [3], 55.3 nM.

Take `COc1cc(-c2ccc(F)c(F)c2)c(F)cc1-n1c2c(ccc1=O)CN(S(=O)(=O)Nc1ccon1)CC2` (single isomer, unassigned) [Example 20-P, P-N-3-isoxazolyl-2-oxo-1-(2,3′,4′-trifluoro-5-methoxy-4-biphenylyl)-1,5,7,8-tetrahydro-1,6-naphthyridine-6(2H)-sulfonamide]: the figures for the IC50 at human Nav1.7 [1], on human Nav1.7 [2] and on human Nav1.7 [3] were 39.3 nM, 3.6 nM and 11.5 nM, respectively.

Consider `COc1cc(-c2cccc(C(F)(F)F)c2)c(Cl)cc1-n1c2c(ccc1=O)CN(S(=O)(=O)Nc1cccnn1)CC2` (single isomer, unassigned) [Example 91-P, P-1-(2-chloro-5-methoxy-3′-(trifluoromethyl)-[1,1′-biphenyl]-4-yl)-2-oxo-N-(pyridazin-3-yl)-1,2,7,8-tetrahydro-1,6-naphthyridine-6(5H)-sulfonamide], for which the IC50 at human Nav1.7 [1] was 16.9 nM; on human Nav1.7 [2], 3.4 nM; on human Nav1.7 [3] it was 3.5 nM.

On to `COc1cc(-c2cccc(C(F)(F)F)c2)c(F)cc1-n1c2c(ccc1=O)CN(S(=O)(=O)Nc1ccon1)CC2` (racemic) [Example 16-(Rac), (Rac)-1-(2-fluoro-5-methoxy-3′-(trifluoromethyl)-4-biphenylyl)-N-3-isoxazolyl-2-oxo-1,5,7,8-tetrahydro-1,6-naphthyridine-6(2H)-sulfonamide], for which the IC50 stood at 38.8 nM on human Nav1.7 [1], 4.7 nM on human Nav1.7 [2] and 5.3 nM on human Nav1.7 [3].

On to `COc1cc(-c2ccc(Cl)c(C)c2)c(F)cc1-n1c2c(ccc1=O)CN(S(=O)(=O)Nc1ccon1)CC2` (single isomer, unassigned) [Example 24-P, P-1-(4′-chloro-2-fluoro-5-methoxy-3′-methyl-4-biphenylyl)-N-3-isoxazolyl-2-oxo-1,5,7,8-tetrahydro-1,6-naphthyridine-6(2H)-sulfonamide], for which the 50% inhibitory concentration (IC50) on human Nav1.7 [1] turned out to be 20.9 nM; at human Nav1.7 [2], 5.2 nM; on human Nav1.7 [3] it was 3.8 nM.

As for `COc1cc(-c2ccc(Cl)c(C#N)c2)c(F)cc1-n1c2c(ccc1=O)CN(S(=O)(=O)Nc1ccon1)CC2` (racemic) [Example 35, (Rac)-1-(4′-chloro-3′-cyano-2-fluoro-5-methoxy-4-biphenylyl)-N-3-isoxazolyl-2-oxo-1,5,7,8-tetrahydro-1,6-naphthyridine-6(2H)-sulfonamide], the figures for the IC50 at human Nav1.7 [1], at human Nav1.7 [2] and on human Nav1.7 [3] were 177 nM, 4 nM and 18 nM, respectively.

`COc1cc(C#CC2CCCC2)c(F)cc1-n1c2c(ccc1=O)CN(S(=O)(=O)Nc1ccon1)CC2` (racemic) [Example 34-(Rac), (Rac)-1-(4-(cyclopentylethynyl)-5-fluoro-2-methoxyphenyl)-N-3-isoxazolyl-2-oxo-1,5,7,8-tetrahydro-1,6-naphthyridine-6(2H)-sulfonamide]: the IC50 at human Nav1.7 [1] worked out at 408 nM; at human Nav1.7 [2], 88.8 nM; on human Nav1.7 [3], 48.5 nM.

Take `COc1cc(-c2cc(F)cc(Cl)c2)c(F)cc1-n1c2c(ccc1=O)CN(S(=O)(=O)Nc1cc(C)ncn1)CC2` (single isomer, unassigned) [Example 4-P, P-1-(3′-chloro-2,5′-difluoro-5-methoxy-4-biphenylyl)-N-(6-methyl-4-pyrimidinyl)-2-oxo-1,5,7,8-tetrahydro-1,6-naphthyridine-6(2H)-sulfonamide]: the values for the concentration for half-maximal inhibition (IC50) at human Nav1.7 [1], at human Nav1.7 [2] and at human Nav1.7 [3] were 78.4 nM, 24.3 nM and 31.8 nM, respectively.
